Target: T1, MCH R1 (melanine-concentrating hormone receptor-1) (Homo sapiens, UniProt Q99705)
T1 construct: purchased Euroscreen, Gosselies, Belgium
Test: Inhibitory effects on MCH R1 binding (Eu-MCH time-resolved fluorescence binding assay)
Details: not given
Experimental: First, MCH R1 (melanine-concentrating hormone receptor-1; Euroscreen, Gosselies, Belgium), 1 μM Europium-labeled melanine-concentrating hormone (Eu-MCH, PerkinElmer, Turku, Finland) and 1 mM melanine-concentrating hormone (MCH, #070-47, Phoenix, Belmont Calif., USA) were kept at 4° C. for ready use. 1 μM Eu-MCH and 1 mM MCH were diluted with an experimental solution (25 mM HEPES pH 7.4, 5 mM MgCl2, 1 mM CaCl2 and 0.5% (w/w) BSA) to 8 nM (final reaction concentration: 2 nM) and 2 μM (final reaction concentration: 0.5 μM), respectively. The compounds prepared in the Examples (“Test compounds”) were dissolved in the experimental solution in concentration of 4 nM to 40 μM (final reaction concentration: 1 nM to 10 μM). MCH R1 (200 assays/vial) was homogeneously dispersed in the experimental solution.
Then, 100 μl/well of the following reaction mixture was added to the wells of a microplate (Multiwell 96 well filter plates PN5020, Pall Co., Ann Arbor, Mich., USA) equipped with a filter paper, with an 8-channel pipette (multi 8-channel, Eppendorf, Hamburg, Germany). Specifically, to the wells of a non-specific binding control group, 25 μl of Eu-MCH, 50 μl of MCH R1 and 25 μl of MCH were added. Further, 25 μl of the experimental solution supplemented with 10% (w/w) of DMSO, 25 μl of Eu-MCH and 50 μl of MCH R1 were added to the wells of a total binding control group, while 25 μl of the test compounds, 25 μl Eu-MCH and 50 μl of MCH R1 were added to the wells of an experimental group. Subsequently, the microplate was shaken gently for 15 seconds and kept at room temperature for 90 minutes to allow the reaction to take place. Then, the plate was washed with a microplate washer (EMBLA, Molecular Devices) by washing three times with 300 μl of a washing solution (25 mM HEPES pH 7.4, 5 mM MgCl2, 1 mM CaCl2) to remove the residual unreacted Eu-MCH. Moisture was removed from the bottom of the wells and 150 μl of dissociation solution (DELFIA Enhancement solution, PerkinElmer, Turku, Finland) was added to each well, followed by keeping the plate at room temperature for 2 to 4 hours. Subsequently, time-resolved fluorescence (TRF) values were measured with a multilabel counter (Victor2, PerkinElmer, Turku, Finland) (emission wave length: 615 nm, excitation wave length: 340 nm). The inhibition rate based on the time-resolved fluorescence data was calculated using the following Equation (I). Inhibition rate of time-resolved fluorescence (%)=[(Average TRF value of the total binding group−Time-resolved fluorescence value of the test compound)/(Average TRF value of the total binding group−Average TRF value of the non-specific binding group)]×100 (I)

T1 sequence (Q99705 whole entry, species assumed): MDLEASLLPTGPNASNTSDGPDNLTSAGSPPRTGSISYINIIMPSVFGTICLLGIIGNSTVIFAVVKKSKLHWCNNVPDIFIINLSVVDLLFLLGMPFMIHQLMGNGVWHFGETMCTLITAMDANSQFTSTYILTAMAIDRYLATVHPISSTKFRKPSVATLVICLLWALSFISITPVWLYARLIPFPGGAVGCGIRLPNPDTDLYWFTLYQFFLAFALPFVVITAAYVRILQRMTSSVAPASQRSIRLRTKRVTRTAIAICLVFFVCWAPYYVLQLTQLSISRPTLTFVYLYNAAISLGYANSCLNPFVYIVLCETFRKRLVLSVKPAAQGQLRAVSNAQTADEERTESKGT

SMILES	IC50
CC(=O)Nc1cccc(C2CCN(CCCn3c(-c4ccc(Cl)cc4)nc4cc([N+](=O)[O-])ccc43)CC2)c1 [Example 85, 2-(4-chlorophenyl)-1-{3-[4-(3-acetylaminophenyl)piperidin-1-yl]propyl}-5-nitro-1H-benzimidazole]	0.07 µM

Same assay, conditions: concentration inhibiting the binding of MCH (Eu-MCH, 2 nM) to MCH R1 by 50% in vitro; TRF readout; test range 1 nM to 10 μM; read-out: IC50

IC50	SMILES
0.094 µM	CC(=O)Nc1cccc(C2CCN(CCCn3c(-c4ccccc4O)nc4ccccc43)CC2)c1 [Example 63, 2-(2-hydroxyphenyl)-1-{3-[4-(3-acetylaminophenyl)piperidin-1-yl]propyl}-1H-benzimidazole]
0.213 µM	O=C(Nc1cccc(C2CCN(CCCn3c(-c4ccc(Cl)cc4)nc4ccccc43)CC2)c1)c1cccc(Cl)c1 [Example 66, 2-(4-chlorophenyl)-1-{3-[4-(3-(3-chlorobenzoylamino)phenyl)piperidin-1-yl]propyl}-1H-benzimidazole]
0.11 µM	CC(=O)Nc1cccc(C2CCN(CCCn3c(-c4ccccc4)nc4cc(Br)c(C)nc43)CC2)c1 [Example 68, 6-bromo-5-methyl-2-phenyl-3-{3-[4-(3-acetylaminophenyl)piperidin-1-yl]propyl}-3H-imidazo[4,5-b]pyridine]
> 10 µM	CC(C)C(=O)Nc1cccc(C2CCN(CCn3c(-c4ccc(Cl)cc4)nc4ccccc43)CC2)c1 [Example 71, 2-(4-chlorophenyl)-1-{2-[4-(3-isobutyrylaminophenyl)piperidin-1-yl]ethyl}-1H-benzimidazole]
0.26 µM	CC(=O)Nc1cccc(C2CCN(CCCn3c(-c4ccccc4)nc4ccncc43)CC2)c1 [Example 72, 2-phenyl-3-{3-[4-(3-acetylaminophenyl)piperidin-1-yl]propyl}-3H-imidazo[4,5-c]pyridine]
0.06 µM	CCc1ccc(-c2nc3ccccc3n2CCCN2CCC(c3cccc(NC(C)=O)c3)CC2)cc1 [Example 77, 2-(4-ethylphenyl)-1-{3-[4-(3-acetylaminophenyl)piperidin-1-yl]propyl}-1H-benzimidazole]
0.1 µM	CC(=O)Nc1cccc(C2CCN(CCCn3c(-c4ccc(C#N)cc4)nc4cc(C)c(C)cc43)CC2)c1 [Example 78, 2-(4-cyanophenyl)-1-{3-[4-(3-acetylaminophenyl)piperidin-1-yl]propyl}-5,6-dimethyl-1H-benzimidazole]
0.02 µM	CC(=O)Nc1cccc(C2CCN(CCCn3c(-c4cccc(C)c4)nc4ccccc43)CC2)c1 [Example 79, 2-(m-tolyl)-1-{3-[4-(3-acetylaminophenyl)piperidin-1-yl]propyl}-1H-benzimidazole]
0.07 µM	CC(=O)Nc1cccc(C2CCN(CCCn3c(-c4ccc(Cl)cc4)nc4ccc(C#N)cc43)CC2)c1 [Example 82, 2-(4-chlorophenyl)-1-{3-[4-(3-acetylaminophenyl)piperidin-1-yl]propyl}-6-cyano-1H-benzimidazole]
0.11 µM	COc1cc(Cl)ccc1-c1nc2cc(C)c(C)cc2n1CCCN1CCC(c2cccc(NC(C)=O)c2)CC1 [Example 86, 2-(4-chloro-2-methoxyphenyl)-1-{3-[4-(3-acetylaminophenyl)piperidin-1-yl]propyl}-5,6-dimethyl-1H-benzimidazole]
> 10 µM	CC(=O)Nc1cccc(C2CCN(CCCn3c(C)nc4ccccc43)CC2)c1 [Example 88, 2-methyl-1-{3-[4-(3-acetylaminophenyl)piperidin-1-yl]propyl}-1H-benzimidazole]
0.06 µM	CC(=O)Nc1cccc(C2CCN(CCCn3c(C)nc4cc(C)c(C)cc43)CC2)c1 [Example 89, 2-methyl-1-{3-[4-(3-acetylaminophenyl)piperidin-1-yl]propyl}-5,6-dimethyl-1H-benzimidazole]
0.08 µM	Cc1nc2ccccc2n1CCCN1CCC(c2cccc(NC(=O)C(C)C)c2)CC1 [Example 90, 2-methyl-1-{3-[4-(3-isobutyrylaminophenyl)piperidin-1-yl]propyl}-1H-benzimidazole]

The remaining lines, values behind:

SMILES	IC50
CC(=O)Nc1cccc(C2CCN(CCCn3c(-c4ccc(Cl)cc4)nc4cc(C(N)=O)ccc43)CC2)c1 [Example 60, 2-(4-chlorophenyl)-1-{3-[4-(3-acetylaminophenyl)piperidin-1-yl]propyl}-5-carbamoyl-1H-benzimidazole]	0.008 µM
CC(=O)Nc1cccc(C2CCN(CCCn3c(-c4ccc(Cl)cc4)nc4ccc(C(N)=O)cc43)CC2)c1 [Example 61, 2-(4-chlorophenyl)-1-{3-[4-(3-acetylaminophenyl)piperidin-1-yl]propyl}-6-carbamoyl-1H-benzimidazole]	0.199 µM
CC(=O)Nc1cccc(C2CCN(CCCn3c(-c4cccc(C(N)=O)c4)nc4ccccc43)CC2)c1 [Example 62, 2-(3-carbamoylphenyl)-1-{3-[4-(3-acetylaminophenyl)piperidin-1-yl]propyl}-1H-benzimidazole]	0.011 µM
CC(C)C(=O)Nc1cccc(C2CCN(CCCn3c(-c4ccc(Cl)cc4)nc4ccccc43)CC2)c1 [Example 64, 2-(4-chlorophenyl)-1-{3-[4-(3-isobutyrylaminophenyl)piperidin-1-yl]propyl}-1H-benzimidazole]	0.005 µM
O=C(Nc1cccc(C2CCN(CCCn3c(-c4ccc(Cl)cc4)nc4ccccc43)CC2)c1)c1ccccc1 [Example 65, 2-(4-chlorophenyl)-1-{3-[4-(3-benzoylaminophenyl)piperidin-1-yl]propyl}-1H-benzimidazole]	0.019 µM
Cc1ccc(C(=O)Nc2cccc(C3CCN(CCCn4c(-c5ccc(Cl)cc5)nc5ccccc54)CC3)c2)cc1 [Example 67, 2-(4-chlorophenyl)-1-{3-[4-(3-(4-methylbenzoylamino)phenyl)piperidin-1-yl]propyl}-1H-benzimidazole]	> 10 µM
CC(=O)Nc1cccc(C2CCN(CCCn3c(-c4ccccc4)nc4ccc(C)nc43)CC2)c1 [Example 69, 5-methyl-2-phenyl-3-{3-[4-(3-acetylaminophenyl)piperidin-1-yl]propyl}-3H-imidazo[4,5-b]pyridine]	0.022 µM
CC(=O)Nc1cccc(C2CCN(CCCn3c(-c4ccc5c(c4)OCO5)nc4ccccc43)CC2)c1 [Example 70, 2-(benzo[1,3]dioxol-5-yl)-1-{3-[4-(3-acetylaminophenyl)piperidin-1-yl]propyl}-1H-benzimidazole]	0.012 µM
CC(=O)Nc1cccc(C2CCN(CCCn3c(-c4ccccc4)nc4nc(C)c(Br)cc43)CC2)c1 [Example 74]	0.68 µM
CC(=O)Nc1cccc(C2CCN(CCCn3c(-c4ccccc4)nc4nc(C)ccc43)CC2)c1 [Example 75]	0.023 µM
COC(=O)c1cccc(-c2nc3ccccc3n2CCCN2CCC(c3cccc(NC(C)=O)c3)CC2)c1 [Example 76, 2-(3-methoxycarbonylphenyl)-1-{3-[4-(3-acetylaminophenyl)piperidin-1-yl]propyl}-1H-benzimidazole]	0.06 µM
CC(=O)Nc1cccc(C2CCN(CCCn3c(-c4ccc(F)cc4Cl)nc4cc(C)c(C)cc43)CC2)c1 [Example 80, 2-(2-chloro-4-fluorophenyl)-1-{3-[4-(3-acetylaminophenyl)piperidin-1-yl]propyl}-5,6-dimethyl-1H-benzimidazole]	0.08 µM
CC(=O)Nc1cccc(C2CCN(CCCn3c(-c4ccc(Cl)cc4)nc4cc(C#N)ccc43)CC2)c1 [Example 81, 2-(4-chlorophenyl)-1-{3-[4-(3-acetylaminophenyl)piperidin-1-yl]propyl}-5-cyano-1H-benzimidazole]	0.07 µM
CC(=O)Nc1cccc(C2CCN(CCCn3c(-c4ccc(Cl)cc4)nc4cc(F)ccc43)CC2)c1 [Example 83, 2-(4-chlorophenyl)-1-{3-[4-(3-acetylaminophenyl)piperidin-1-yl]propyl}-5-fluoro-1H-benzimidazole]	0.07 µM
CC(=O)Nc1cccc(C2CCN(CCCn3c(-c4ccc(F)cc4)nc4cc(Cl)ccc43)CC2)c1 [Example 84, 2-(4-fluorophenyl)-1-{3-[4-(3-acetylaminophenyl)piperidin-1-yl]propyl}-5-chloro-1H-benzimidazole]	0.05 µM
COc1ccc(Cl)cc1-c1nc2cc(C)c(C)cc2n1CCCN1CCC(c2cccc(NC(C)=O)c2)CC1 [Example 87, 2-(5-chloro-2-methoxyphenyl)-1-{3-[4-(3-acetylaminophenyl)piperidin-1-yl]propyl}-5,6-dimethyl-1H-benzimidazole]	0.07 µM
